Measured values from patent publication US9353084B2, “2-amino 3,5,5-trifluoro-3,4,5,6-tetrahydropyridines as BACE1 inhibitors for treatment of Alzheimer's disease” (H. Lundbeck A/S, priority 2014, dated 2016).
Like-named read-outs stand apart in the source and are kept apart here.

Columns and labels:
Aβ40 = test: Assessment of Aβ40 levels in rat brain and plasma following BACE1 inhibition (ELISA); type: in vivo; conditions: 3 hours post dose, vs vehicle
Procedure: (§1) Young adult Male Sprague Dawley rats of approximately 250 g weight were purchased from Charles River and received 0-30 mg/kg of vehicle (10% HP betaCD+1M MeSO4, pH 2.5) or test compounds (dissolved in vehicle) only by oral gavage (p.o). The compounds are dosed at a volume of 5 ml/kg. Cohorts of 5-10 animals were established for each treatment condition.
(§2) At T=180 minutes after initial dosing the animals were stunned and decapitated with a guillotine. Trunk-blood was sampled in EDTA coated tubes after decapitation of the animal. The blood was centrifuged at 2200 G at 4° C. for 15 minutes and the plasma was collected and frozen at −80° C. The blood was aliquoted for Aβ ELISA and DMPK analysis Immediately following sacrifice, the brain was extracted and split into 2 halves. The right hemibrains were snap frozen on dry ice and stored at −80° C. The left half was dissected; with the front forebrain taken for Aβ ELISA and the remainder used for DMPK analysis. These samples were also snap frozen on dry ice and stored at −80° C. until use for analysis.
The cortex samples were thawed slightly on wet ice before they were homogenized with a small volume dispersing instrument (T10 basic ULTRA-TURRAX®) which was set at speed 5 for approximately 5-7 sec. The tissue was processed in a 10 times volume of the weight, for example 100 mg of tissue was homogenized in 1000 μL of Homogenization buffer. Homogenization buffer: 50 ml Milli Q water+[…]+0.2% Diethylamin (DEA)+1 tablet of Complete Protease inhibitor cocktail+1 nM 4-(2-aminoethyl)benzenesulfonyl fluoride hydrochloride irreversible serine protease inhibitor (AEBSF).
After homogenization 450 μL aliquots of the samples are collected into a 1.5 ml Eppendorf tube and placed on wet ice, 0.5% NP-40 (50 ul) was added to all samples and then they were incubated on ice for 30 min. After which all samples were sonicated using an Ultrasonic homogenizer with 20 kHz homogeneous sound (SONOPLUS HD2070, Bandelin Electronic) 10 pulse set at 12-13% power to extract all the Aβ species. The samples were then centrifuged (Ole Dich 157 MPRF Micro centrifuge) at 20000 G for 20 minutes at 4° C. After centrifugation 285 μL of the supernatant was pipetted into 600 μL microtubes tubes and neutralized with 15 μL of 1M Tris-HCL buffer.
WAKO 294-62501 Human/Rat Abeta amyloid (40) kit was used for all ELISA analyses. 30 μL plasma samples or 30 μL of the cortex supernatants generated as described above were placed in 600 μL microtubes tubes on wet ice. To this 30 μL of 8M Urea (AppliChem A1049, 9025) are added to generate a 2-fold dilution. Both plasma and cortex supernatants are incubated on ice for 30 min. Standard rows were prepared from the standard peptide stock provided in the kit and standard diluent containing 1.6M Urea (200 μL 8M Urea+800 μL of standard diluent) and 0.8M Urea (400 μL 8M Urea+3600 μL Standard diluent). A serial 2-fold dilution of Aβ40 from 100 pmol/ml to 0 pmol/L was prepared for the assay.
After incubation with urea, all samples were further diluted by addition of 5 times standard diluent from the Kit. This was done by adding 240 μL Standard Diluent to 60 μL sample/urea mixture, which was then mixed well. 100 μL of each diluted sample was pipetted into designated wells of the ELISA plate in duplicates. The plate was then covered and incubated overnight at 4° C. The following day, the ELISA kit was brought to room temperature before use. The incubated plate was washed 5 times with the 20× washing solution diluted in Milli Q water. 100 μL HRP-conjugate was applied to each well, and the plate was covered and incubates at 4° C. for 1 hr. The wash was repeated again for 5 times. 100 μL 3,3′,5,5′-Tetramethylbenzidine (TMB) solution was applied to each well and the plate was covered and incubated in the dark at room temperature for 30 minutes. […]

[1] = Brain and plasma exposure in rats after oral dosing (DMPK analysis); type: in vivo; conditions: male, Sprague Dawley, 3 hours post dose, rat, read-out: Brain/Plasma ratio
Procedure: as §1, §2
Compounds 1, 5, 17, 18, and 24 were administered at doses of 10 or 30 mg/kg p.o. and brain and plasma samples were collected at 3 hours post dose and the following exposures and reductions in Aβ40 levels were measured as described above.

human BACE1 = human BACE1 (Homo sapiens (Human), UniProt P56817); test: BACE1 binding assay (SPA-based, radioligand displacement); conditions: pH 4.5, Ki calculated from IC50
human BACE1, sequence (P56817 46-501): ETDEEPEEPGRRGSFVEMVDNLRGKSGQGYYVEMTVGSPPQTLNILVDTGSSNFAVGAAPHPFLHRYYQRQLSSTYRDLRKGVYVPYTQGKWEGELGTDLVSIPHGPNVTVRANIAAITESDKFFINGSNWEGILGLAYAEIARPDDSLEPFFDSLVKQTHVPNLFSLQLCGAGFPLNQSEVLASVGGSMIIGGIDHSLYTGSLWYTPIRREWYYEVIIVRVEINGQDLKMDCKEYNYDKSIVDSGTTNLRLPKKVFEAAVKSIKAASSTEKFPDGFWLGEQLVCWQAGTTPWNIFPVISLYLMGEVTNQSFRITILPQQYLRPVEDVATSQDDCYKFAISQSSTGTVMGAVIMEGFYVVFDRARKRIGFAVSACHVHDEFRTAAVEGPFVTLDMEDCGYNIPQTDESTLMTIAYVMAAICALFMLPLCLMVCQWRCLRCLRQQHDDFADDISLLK
Procedure: The binding assay was performed as SPA-based assay using a biotinylated form of human BACE1 recombinantly expressed and subsequently purified from Freestyle HEK293 cells. The binding assay was run in a 50 mM sodium acetate buffer, pH 4.5 containing 50 mM NaCl and 0.03% Tween-20 in white clear bottom 384 plates (Corning #3653). 10 nM (final concentration) radioligand ([^3H]—N-((1S,2R)-1-benzyl-3-cyclopropylamino-2-hydroxy-propyl)-5-(methanesulfonyl-methyl-amino)-N—((R)-1-phenyl-ethyl)-isophthalamide) (TRQ11569 purchased from GE Healthcare) was mixed with test compound at a given concentration, 6 nM (final concentration) human BACE1 and 25 μg Streptavidin coated PVT core SPA beads (RPNQ0007, GE Healthcare Life Sciences) in a total volume of 40 μl. Several concentrations of each test compound were tested in the assay for IC50 determination. The plates were incubated for one hour at room temperature and counted in a Wallac Trilux counter. Total and non-specific binding were determined using buffer and 1 μM (final concentration) of the high affinity BACE1 reference inhibitor (S)-6-[3-chloro-5-(5-prop-1-ynyl-pyridin-3-yl)-thiophen-2-yl]-2-imino-3,6-dimethyl-tetrahydro-pyrimidin-4-one, respectively. For each test compound, a IC50 value (the concentration mediating 50% inhibition of the specific binding of the radioligand) was determined from concentration-response curve and used to calculate the Ki from the equation Ki=IC50/(1+L/Kd), where L and Kd are the final concentration of the radioligand used in the assay and the dissociation constant of the radioligand, respectively. The Kd of the radioligand was determined from saturation binding experiments.

| Kp at 3 h ([1]; 30 mg/kg p.o.) | Ki (human BACE1) | Kp at 3 h ([1]; 10 mg/kg p.o.) | Compound | Aβ40 reduction, Brain Rat (Aβ40; 30 mg/kg p.o.) | Aβ40 reduction, Plasma Rat (Aβ40; 30 mg/kg p.o.) | Aβ40 reduction, Brain Rat (Aβ40; 10 mg/kg p.o.) | Aβ40 reduction, Plasma Rat (Aβ40; 10 mg/kg p.o.) |
| --- | --- | --- | --- | --- | --- | --- | --- |
| 1.48 | 11 nM |  | COc1ccc(C(=O)Nc2ccc(F)c([C@@]3(C)N=C(N)[C@@](C)(F)CC3(F)F)c2)nc1 [Compound 17, N-(3-((2R,5S)-6-amino-3,3,5-trifluoro-2,5-dimethyl-2,3,4,5-tetrahydropyridin-2-yl)-4-fluorophenyl)-5-methoxypicolinamide] | 63% | 49% |  |  |
|  | 65 nM |  | Cc1nc(C(=O)Nc2ccc(F)c([C@@]3(C)N=C(N)[C@@](C)(F)CC3(F)F)c2)c(C)o1 [Compound 47, N-(3-((2R,5S)-6-amino-3,3,5-trifluoro-2,5-dimethyl-2,3,4,5-tetrahydropyridin-2-yl)-4 fluorophenyl)-2,5-dimethyloxazole-4-carboxamide] |  |  |  |  |
|  | 60 nM |  | Cc1cc(F)cnc1C(=O)Nc1ccc(F)c([C@@]2(C)N=C(N)[C@@](C)(F)CC2(F)F)c1 [Compound 49, N-(3-((2R,5S)-6-amino-3,3,5-trifluoro-2,5-dimethyl-2,3,4,5-tetrahydropyridin-2-yl)-4-fluorophenyl)-5-fluoro-3-methylpicolinamide] |  |  |  |  |

Further lines, the compound ahead of its results:

| Compound | Kp at 3 h ([1]; 30 mg/kg p.o.) | Ki (human BACE1) | Kp at 3 h ([1]; 10 mg/kg p.o.) | Aβ40 reduction, Brain Rat (Aβ40; 30 mg/kg p.o.) | Aβ40 reduction, Plasma Rat (Aβ40; 30 mg/kg p.o.) | Aβ40 reduction, Brain Rat (Aβ40; 10 mg/kg p.o.) | Aβ40 reduction, Plasma Rat (Aβ40; 10 mg/kg p.o.) |
| --- | --- | --- | --- | --- | --- | --- | --- |
| C[C@]1(F)CC(F)(F)[C@@](C)(c2cc(NC(=O)c3ccc(F)cn3)ccc2F)N=C1N [Compound 1, N-(3-((2R,5S)-6-amino-3,3,5-trifluoro-2,5-dimethyl-2,3,4,5-tetrahydropyridin-2-yl)-4-fluorophenyl)-5-fluoropicolinamide] | 0.62 | 83 nM |  | 56% | 41% |  |  |
| COc1cnc(C(=O)Nc2ccc(F)c([C@@]3(C)N=C(N)[C@@](C)(F)CC3(F)F)c2)cn1 [Compound 5, N-(3-((2R,5S)-6-amino-3,3,5-trifluoro-2,5-dimethyl-2,3,4,5-tetrahydropyridin-2-yl)-4-fluorophenyl)-5-methoxypyrazine-2-carboxamide] | 1.5 | 18 nM | 1.3 | 61% | 39% | 34% | 34% |
| Cc1cc(C#N)cnc1C(=O)Nc1ccc(F)c([C@@]2(C)N=C(N)[C@@](C)(F)CC2(F)F)c1 [Compound 18, N-(3-((2R,5S)-6-amino-3,3,5-trifluoro-2,5-dimethyl-2,3,4,5-tetrahydropyridin-2-yl)-4-fluorophenyl)-5-cyano-3-methylpicolinamide] | 0.54 | 4.3 nM | 0.53 | 61% | 50% | 66% | 54% |
| C[C@@]1(F)CC(F)(F)[C@@](C)(c2cc(NC(=O)c3cnc(C(F)F)cn3)ccc2F)N=C1N [Compound 24, N-(3-((2R,5R)-6-amino-3,3,5-trifluoro-2,5-dimethyl-2,3,4,5-tetrahydropyridin-2-yl)-4-fluorophenyl)-5-(difluoromethyl)pyrazine-2-carboxamide] | 1.2 | 420 nM | 1.39 | 49% | 61% | 15% | 28% |
| [2H]C([2H])([2H])Oc1ccc(C(=O)Nc2ccc(F)c([C@@]3(C)N=C(N)[C@@](C)(F)CC3(F)F)c2)nc1 [Compound 48] |  | 14 nM |  |  |  |  |  |
